Holding throughout (assay): inhibition of tumour cell growth, NCI panel, 48 h
In test [1] the test system is KM12 colon.
In test [2] the test system is SNB-75 CNS.
The test system of test [3] is HCC-2998 colon.
For test [4], the system named is ACHN renal.
Test [5] relates to SNB-19 CNS.
Test [6] has as its system COLO 205 colon.
Test [7] has as its system SK-MEL-5 melanoma.
In test [8] the test system is HOP-92 NSCLC.
In test [9] the test system is OVCAR-5 ovarian.
Test [10] has as its system SR leukemia.

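48-hour exposure; five concentrations; linearly interpolated endpoints. At the GI50, growth is halved. TGI marks complete inhibition of growth.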

For `O=C(O)CNS(=O)(=O)c1ccc(NC(=O)c2cccc([N+](=O)[O-])c2)cc1`, the TGI in test [1], in test [2], in [3], in [4], in [5] and in test [6] was above 100 µM throughout. Also, the TGI in test [7], in test [8] and in test [9] was above 100 µM throughout.
Regarding `Cc1cc(C(=O)NCCN(C)C)c2nc3ccccc3nc2c1`, the TGI in test [1] was 23.8 µM; in test [2] it was 48.3 µM; in test [3] it was 35.2 µM; in test [4], above 51 µM; in test [5], 73.5 µM; in test [6], above 37.1 µM. The figures for the TGI in test [7], in test [10] and in [9] were above 41.6 µM, above 100 µM and 15.2 µM, respectively.
Consider `Cc1cc(Br)cc(C)c1NC(=O)C(=O)C(C(=O)c1ccc(Cl)c(Cl)c1)C1OC(=O)c2ccccc21` (configuration not stated), for which the TGI in [1], in test [3], in test [4], in test [5], in test [6] and in test [10] was above 100 µM each time. This compound gave a TGI in test [9] above 100 µM.
In the case of `OCC(O)C(OC1OC(CO)C(O)C(O)C1O)c1nn(-c2ccc(F)cc2)c2nc3cc(Cl)c(Cl)cc3cc12` (configuration not stated), the TGI in test [1], in test [2], in test [3], in test [4], in [5] and in [10] was above 100 µM in each case. Moreover, the TGI in [9] was above 100 µM.
As for `CC(C)(C)c1ccc(C(O)(c2ccc(C(C)(C)C)cc2)c2ccc(C(C)(C)C)cc2)cc1`, the TGI in [1], in test [2], in [3], in test [4], in [5] and in test [6] was above 100 µM throughout. The TGI in test [7], in [10] and in test [9] was above 100 µM in each case.
For the compound `CC12CC(=O)NN=C1c1ccccc1C2` (configuration not stated), the TGI in [1], in [2], in [3], in [4], in test [5] and in test [6] was above 100 µM throughout. The TGI in test [7] and in [9] was above 100 µM in each case.
With `NC(=O)Cn1c(=O)[nH]c(=O)c2[nH]cnc21`, the TGI in [1], in test [2], in test [3], in test [4], in [5] and in test [6] was above 100 µM in each case. Moreover, the TGI in [7], in [10] and in test [9] was above 100 µM each time.
Take `C=C(C)[C@@H]1CC[C@]2(C#N)CC[C@]3(C)[C@H](CC[C@@H]4[C@@]5(C)CCCNC(C)(C)[C@@H]5CC[C@]43C)[C@@H]12`: the GI50 in test [1] is 1.66 µM; in test [3] it was 1.8 µM; in test [4] it was 1.83 µM; in [5] it was 2.29 µM; in [6] it was 1.96 µM; in test [7], 1.71 µM. For the same compound, the GI50 in test [8] is 2.69 µM; in [9] it was 2.72 µM. The TGI in [1] stood at 3.23 µM; in test [3] it was 3.24 µM; in [4], 3.22 µM; in test [5], 4.69 µM; in [6], 3.51 µM; in test [7] it was 3.08 µM. The TGI in test [8] stood at 11.3 µM; in test [9], 7.15 µM.
For the compound `Cc1nc(Nc2ccc([N+](=O)[O-])cc2)sc1C(=O)/C=C/c1ccc(N(C)C)cc1`, the TGI in test [1], in [2], in test [3], in test [4], in [5] and in test [6] was above 100 µM in each case. For the same compound, the TGI in test [7], in test [8] and in [9] was above 100 µM in each case.
Consider `O=C1CCC(c2ccccc2)(c2ccccc2)CC1`, for which the TGI in test [1] was above 100 µM; in [2], above 100 µM; in test [4], above 100 µM; in test [5], above 100 µM; in [6], 89.9 µM; in test [7], above 100 µM. The TGI in test [8], in [10] and in [9] was above 100 µM throughout.
On to `CCn1c(-c2cc3ccccc3cc2OC(=O)c2ccccc2)n[nH]c1=S`, for which the GI50 in test [1] was 42.3 µM; in [2] it was above 50 µM; in test [4], above 50 µM; in [5], above 50 µM; in [6] it was above 50 µM; in test [7], 19.8 µM. Besides, the results for the GI50 in test [8], in test [10] and in test [9] were above 50 µM, 19.8 µM and above 50 µM, respectively. For the same compound, the TGI in [1], in [2], in test [4], in test [5], in [6] and in test [7] was above 50 µM throughout. The TGI in test [8], in test [10] and in test [9] was above 50 µM in each case.
Regarding `C[Si](C)(C)[C@@]1([Se]c2ccccc2)CC[C@@H]1C(=O)c1ccccc1`, the TGI in [1], in [2], in test [3], in test [4], in test [5] and in [6] was above 100 µM throughout. Moreover, the TGI in test [7] was 37.4 µM; in test [9], above 100 µM.
Turning to `O=C1C=Cc2noc3cccc1c23`, the TGI in [1] was found to be 19.1 µM; in test [2] it was 25.8 µM; in [3] it was 28.6 µM; in [4], 7.85 µM; in test [5], 31.3 µM; in test [6], 34 µM. In addition, the TGI turned out to be 24.2 µM in test [7], 5.22 µM in test [8] and 28.4 µM in [9].

These data come from PubChem BioAssay (NCI).
